The values that follow come from patent US10189841B2, “Purinones as ubiquitin-specific protease 1 inhibitors” (Forma Therapeutics, Inc., priority 2015, dated 2019).

Sequence of USP1 (construct USP1 (I-785, GG670, 671AA)/UAF1 (I-677)-Flag) (O94782 whole entry G670A/G671A): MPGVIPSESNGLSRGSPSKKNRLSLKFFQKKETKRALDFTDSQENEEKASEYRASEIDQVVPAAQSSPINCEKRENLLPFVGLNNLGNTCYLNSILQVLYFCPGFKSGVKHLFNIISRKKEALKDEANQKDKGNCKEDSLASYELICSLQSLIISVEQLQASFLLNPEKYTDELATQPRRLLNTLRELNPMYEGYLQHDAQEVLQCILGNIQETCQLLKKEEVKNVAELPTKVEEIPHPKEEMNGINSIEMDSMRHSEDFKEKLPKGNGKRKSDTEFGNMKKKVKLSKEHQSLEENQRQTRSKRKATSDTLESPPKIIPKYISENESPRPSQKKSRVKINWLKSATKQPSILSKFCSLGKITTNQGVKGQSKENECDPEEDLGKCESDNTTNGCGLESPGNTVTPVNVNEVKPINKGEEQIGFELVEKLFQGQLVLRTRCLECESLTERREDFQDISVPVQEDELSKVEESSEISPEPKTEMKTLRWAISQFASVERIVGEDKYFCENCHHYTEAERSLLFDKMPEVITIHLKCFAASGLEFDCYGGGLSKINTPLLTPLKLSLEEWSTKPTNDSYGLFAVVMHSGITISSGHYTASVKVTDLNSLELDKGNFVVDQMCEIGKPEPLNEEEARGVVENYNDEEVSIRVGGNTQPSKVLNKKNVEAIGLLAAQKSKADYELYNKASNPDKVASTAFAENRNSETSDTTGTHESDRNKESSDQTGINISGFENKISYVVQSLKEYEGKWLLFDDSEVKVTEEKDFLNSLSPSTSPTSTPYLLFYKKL
Sequence of USP1 (construct USP1 (I-785, GG670, 671AA)/UAF1 (I-677)-Flag) (Q8TAF3 whole entry partner): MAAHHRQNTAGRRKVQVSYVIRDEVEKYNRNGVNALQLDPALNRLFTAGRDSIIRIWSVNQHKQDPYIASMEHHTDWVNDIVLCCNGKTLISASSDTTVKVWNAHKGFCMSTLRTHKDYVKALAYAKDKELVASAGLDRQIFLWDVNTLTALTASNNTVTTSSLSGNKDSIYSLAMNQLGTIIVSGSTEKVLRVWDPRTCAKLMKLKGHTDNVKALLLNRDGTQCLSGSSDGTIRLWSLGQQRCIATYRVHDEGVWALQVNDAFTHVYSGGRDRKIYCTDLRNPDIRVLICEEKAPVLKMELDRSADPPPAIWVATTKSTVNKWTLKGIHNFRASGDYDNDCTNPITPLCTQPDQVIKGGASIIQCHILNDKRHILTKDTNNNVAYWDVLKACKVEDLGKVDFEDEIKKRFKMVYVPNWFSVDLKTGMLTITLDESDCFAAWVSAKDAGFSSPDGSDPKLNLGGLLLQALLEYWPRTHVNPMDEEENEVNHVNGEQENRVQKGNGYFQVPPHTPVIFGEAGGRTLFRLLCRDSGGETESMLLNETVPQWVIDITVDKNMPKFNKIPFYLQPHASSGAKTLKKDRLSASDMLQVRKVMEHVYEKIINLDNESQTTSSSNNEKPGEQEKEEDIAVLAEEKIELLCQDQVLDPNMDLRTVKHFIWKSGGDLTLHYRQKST

The experiment has as its target USP1 (construct USP1 (I-785, GG670, 671AA)/UAF1 (I-677)-Flag) (Homo sapiens (Human), UniProt O94782, G670A/G671A). Briefly: Ubiquitin-Rhodamine 110 assay for USP1 activity. Format: biochemical. As to conditions: USP1/UAF1 25 pM, Ub-Rh110 25 nM, 30 min preincubation. How it is done: Example 53: Ubitquin-Rhodamine 110 Assay for USP1 Activity
The HTS assay was performed in a final volume of 20 μL in assay buffer containing 20 mM Tris-HCl (pH 8.0, (1M Tris-HCl, pH 8.0 solution; Corning 46-031-CM)), 2 mM CaCl2 (1M Calcium Chloride solution; Sigma #21114) 1 mM GSH (L-Glutathione reduced; Sigma #G4251), 0.01% Prionex ([…] filtered, Sigma #G-0411), and 0.01% Triton X-100. Stock compound solutions were stored at −20° C. as 10 mM in DMSO. Up to 1 month prior to the assay, 2 mM test compounds were pre-dispensed into assay plates (Black, low volume; Corning #3820) and frozen at −20° C. Prestamped assay plates were allowed to come to room temperature on the day of the assay. For the screen, 100 nL of 2 mM was pre-dispensed for a final screening concentration of […] (DMSO(fc)=0.5%). The final concentration of the enzyme (USP1, construct USP1 (I-785, GG670, 671AA)/UAF1 (I-677)-Flag; Viva) in the assay was 100 pM. Final substrate (Ub-Rh110; Ubiquitin-Rhodamine 110, R&D Systems #U-555) concentration was 25 nM with [Ub-Rh110]<<Km. […] Plates were incubated stacked for 45 minutes at room temperature before fluorescence was read on the Envision (Excitation at 485 nm and Emission at 535 nm; Perkin Elmer) or on the PheraSTAR (Excitation at 485 nm and Emission at 535 nm; BMG Labtech)
Nanoliter quantities of either an 8-point or 10-point, 3-fold serial dilution in DMSO was pre-dispensed into assay plates (Perkin Elmer, ProxiPlate-384 F Plus, #6008269) for a final test concentration range of either 25 μM to 11 nM or 25 μM to 1.3 nM, respectively. The final concentration of the enzyme (USP1, construct USP1 (I-785, GG670, 671AA)/UAF1 (I-677)-Flag; Viva) in the assay was 25 pM. Final substrate (Ub-Rh110; Ubiquitin-Rhodamine 110, R&D Systems #U-555) concentration was 25 nM with [Ub-Rh110]<<Km. […] Plates were incubated stacked for 20 minutes at room temperature before 5 μL of stop solution (final concentration of 10 mM citric acid in assay buffer (Sigma, #251275-500G)). Fluorescence was read on the Envision (Excitation at 485 nm and Emission at 535 nm; Perkin Elmer) or on the PheraSTAR (Excitation at 485 nm and Emission at 535 nm; BMG Labtech).
For both assay formats data were reported as percent inhibition compared with control wells based on the following equation: % inh=[1−((FLU−AveLow)/(AveHigh−AveLow))]×100 where FLU=measured Fluorescence, AveLow=average Fluorescence of no enzyme control (n=16), and AveHigh=average Fluorescence of DMSO control (n=16). IC50 values were determined by curve fitting of the standard 4 parameter logistic fitting algorithm included in the Activity Base software package: IDBS XE Designer Model205. Data is fitted using the Levenburg Marquardt algorithm.
Usually IC50 stands for the concentration that inhibits the measured activity by half. Read a high IC50 as a need for much substance. In turn, `Cn1cc(C(F)(F)F)nc1-c1ccc(Cn2c(=O)[nH]c3cnc(-c4ccccc4C(F)F)nc32)cc1` [Compound I-31, 2-(2-(difluoromethyl)phenyl)-9-(4-(1-methyl-4-(trifluoromethyl)-1H-imidazol-2-yl)benzyl)-7,9-dihydro-8H-purin-8-one] yielded an IC50 of less than 50 nM.
`Cn1cc(C(F)(F)F)nc1-c1ccc(Cn2c(=O)[nH]c3cnc(-c4ccccc4C4(O)CC4)nc32)cc1` [Compound I-526, 2-(2-(1-Hydroxycyclopropyl)phenyl)-9-(4-(1-methyl-4-(trifluoromethyl)-1H-imidazol-2-yl)benzyl)-7,9-dihydro-8H-purin-8-one]: the IC50 was less than 50 nM.
The result for `COCCOc1ccccc1-c1ncc2[nH]c(=O)n(Cc3ccc(-n4cccn4)cc3)c2n1` [Compound I-20, 9-(4-(1H-pyrazol-1-yl)benzyl)-2-(2-(2-methoxyethoxy)phenyl)-7,9-dihydro-8H-purin-8-one] reads 200 to 2000 nM.
In turn, `CC(C)c1ccccc1-c1ncc2[nH]c(=O)n(Cc3ccc(-n4ccc(C#N)n4)cc3)c2n1` [Compound I-196, 1-(4-((2-(2-isopropylphenyl)-8-oxo-7,8-dihydro-9H-purin-9-yl)methyl)phenyl)-1H-pyrazole-3-carbonitrile] showed an IC50 of less than 50 nM.
The result for `Cc1cc(C)n([C@H]2CC[C@H](Cn3c(=O)[nH]c4cnc(-c5ccccc5C(C)C)nc43)CC2)n1` [Compound I-213, 9-(((1r,4r)-4-(3,5-dimethyl-1H-pyrazol-1-yl)cyclohexyl)methyl)-2-(2-isopropylphenyl)-7,9-dihydro-8H-purin-8-one] reads 200 to 2000 nM; that for `CC(C)c1ccccc1-c1ncc2[nH]c(=O)n(Cc3ccc(-c4nc(Cl)cn4C)cc3)c2n1` [Compound I-198, 9-(4-(4-chloro-1-methyl-1H-imidazol-2-yl)benzyl)-2-(2-isopropylphenyl)-7,9-dihydro-8H-purin-8-one], less than 50 nM.
Under `CC(C)c1ccccc1-c1ncc2[nH]c(=O)n(Cc3ccc(-c4cn(C(C)C)cn4)cc3)c2n1` [Compound I-275, 9-(4-(1-isopropyl-1H-imidazol-4-yl)benzyl)-2-(2-isopropylphenyl)-7,9-dihydro-8H-purin-8-one] stands less than 50 nM; under `Cc1cccc(-c2ncc3[nH]c(=O)n(Cc4ccc(-n5cccn5)cc4)c3n2)c1C(C)C` [Compound I-91, 9-(4-(1H-pyrazol-1-yl)benzyl)-2-(2-isopropyl-3-methylphenyl)-7,9-dihydro-8H-purin-8-one], less than 50 nM.
Compound `CC(C)c1ccccc1-c1ncc2[nH]c(=O)n(Cc3ccc(-c4cnn(C)c4CC(=O)O)cc3)c2n1` [Compound I-254, 2-(4-(4-((2-(2-isopropylphenyl)-8-oxo-7,8-dihydro-9H-purin-9-yl)methyl)phenyl)-1-methyl-1H-pyrazol-5-yl)acetic acid] gave a concentration for half-maximal inhibition (IC50) greater than 2000 nM.
Regarding `CC(C)c1ccccc1-c1ncc2[nH]c(=O)n(Cc3ccc(-c4cnn(CCN(C)C)c4)cc3)c2n1` [Compound I-520, 9-(4-(1-(2-(Dimethylamino)ethyl)-1H-pyrazol-4-yl)benzyl)-2-(2-isopropylphenyl)-7,9-dihydro-8H-purin-8-one], the IC50 was 200 to 2000 nM.
Under `CC(C)c1ccccc1-c1ncc2c(n1)n(Cc1ccc(-c3cccn4ccnc34)cc1)c(=O)n2C` [Compound I-269, 9-(4-(imidazo[1,2-a]pyridin-8-yl)benzyl)-2-(2-isopropylphenyl)-7-methyl-7,9-dihydro-8H-purin-8-one] stands less than 50 nM; under `O=c1[nH]c2cnc(-c3cccnc3OCC(F)(F)F)nc2n1[C@@H]1CC[C@H]1c1ccc(-n2cccn2)cc1` [Compound I-24, 9-((1R,2S)-2-(4-(1H-pyrazol-1-yl)phenyl)cyclobutyl)-2-(2-(2,2,2-trifluoroethoxy)pyridin-3-yl)-7,9-dihydro-8H-purin-8-one], 50 to 200 nM.
